Assay results taken from patent US20110301142A1, “ANTAGONISTS OF LYSOPHOSPHATIDIC ACID RECEPTORS” (priority 2008, published 2011).

Assays:
human LPA1 = biological target: T1, human LPA1 (Homo sapiens, UniProt Q92633); assay: LPA1 calcium flux assay (HLPA1 Ca Flux); assay type: cell-based; settings: Human LPA1 expressing CHO cells, stimulated with 10 nM LPA
T1 construct: the full-length cDNA for human LPA1 was obtained by PCR of the reverse transcription reaction; expressed in transfected cells
Outline: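 CHO cells stably expressing cloned human LPA1, serum-starved overnight and loaded with Calcium 4 dye, were preincubated 30 min at room temperature with compound. Cells were then challenged with 10 nM LPA and intracellular Ca2+ measured; IC50 values came from titration curves.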

human LPA3 = biological target: T2, human LPA3 (Homo sapiens, UniProt Q9UBY5); assay: LPA3 calcium flux assay; assay type: cell-based; settings: Human LPA3 expressing CHO cells, stimulated with 10 nM LPA; read-out: HLPA3 Ca Flux IC50
T2 construct: The full-length cDNA fragment for human LPA3 was obtained by PCR from the vector; expressed in transfected cells; cDNA from the Missouri S&T cDNA Resource Center
T2 sequence (Q9UBY5 1-353): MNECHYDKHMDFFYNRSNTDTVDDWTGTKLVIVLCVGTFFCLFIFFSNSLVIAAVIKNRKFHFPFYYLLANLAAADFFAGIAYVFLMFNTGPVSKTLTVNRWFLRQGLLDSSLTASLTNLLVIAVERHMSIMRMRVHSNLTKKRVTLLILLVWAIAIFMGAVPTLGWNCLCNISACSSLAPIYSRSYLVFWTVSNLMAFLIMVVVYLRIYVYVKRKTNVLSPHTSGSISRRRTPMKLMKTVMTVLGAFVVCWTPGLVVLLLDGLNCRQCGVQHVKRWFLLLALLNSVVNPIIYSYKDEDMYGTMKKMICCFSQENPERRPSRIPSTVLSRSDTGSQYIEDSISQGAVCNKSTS
Protocol: A vector containing the human LPA3 receptor cDNA was obtained from the Missouri S&T cDNA Resource Center (www.cdna.org). The full-length cDNA fragment for human LPA3 was obtained by PCR from the vector. The nucleotide sequence of the cloned human LPA3 was determined by sequencing and confirmed to be identical to the published human LPA3 sequence (NCBI accession number NM 012152). The cDNA was cloned into the pcDNA5/FRT expression plasmid and transfected in CHO cells using lipofectamine 2000 (Invitrogen Corp., USA). Clones stably expressing human LPA3 were selected using hygromycin and identified as cells that show Ca-influx in response to LPA.
Human LPA1 or LPA3 expressing CHO cells are seeded at 20,000-45,000 cells per well in a 96-well poly-D-lysine coated plate one or two days before the assay. Prior to the assay, the cells are washed once with PBS and then cultured in serum-free media overnight. On the day of the assay, a calcium indicator dye (Calcium 4, Molecular Devices) in assay buffer (HBSS with Ca^2+ and Mg^2+ and containing 20 mM Hepes and 0.3% fatty-acid free human serum albumin) is added to each well and incubation continued for 1 hour at 37° C. 10 μl of test compounds in 2.5% DMSO are added to the cells and incubation continued at room temperature for 30 minutes. Cells are the stimulated by the addition of 10 nM LPA and intracellular Ca^2+ measured using the Flexstation 3 (Molecular Devices). IC50s are determined using Graphpad prism analysis of drug titration curves.

T1 sequence (Q92633 whole entry): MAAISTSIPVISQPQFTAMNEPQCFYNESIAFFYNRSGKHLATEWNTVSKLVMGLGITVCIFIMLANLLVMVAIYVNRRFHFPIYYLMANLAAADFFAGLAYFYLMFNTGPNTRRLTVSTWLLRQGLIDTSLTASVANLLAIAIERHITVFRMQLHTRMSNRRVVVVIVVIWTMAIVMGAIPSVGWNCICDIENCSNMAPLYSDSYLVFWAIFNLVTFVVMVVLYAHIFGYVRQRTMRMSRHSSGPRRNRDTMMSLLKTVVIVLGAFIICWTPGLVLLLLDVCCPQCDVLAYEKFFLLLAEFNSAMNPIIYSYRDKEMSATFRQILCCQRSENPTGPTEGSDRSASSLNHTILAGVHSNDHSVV

Work on `Cc1noc(-c2ccc(-c3ccc(C(=O)O)nc3)cc2)c1NC(=O)OC(C)c1ccccc1Cl` (centres unmarked) [Compound 1-56, 5-(4-{4-[1-(2-Chloro-phenyl)-ethoxycarbonylamino]-3-methyl-isoxazol-5-yl}-phenyl)-pyridine-2-carboxylic acid] yielded an IC50 (human LPA1) of less than 300 nM and an IC50 (human LPA3) of 1 to 50 µM.

`Cc1noc(-c2ccc(-c3ccccc3CC(=O)O)cc2)c1NC(=O)OC(C)c1ccccc1Cl` (centres unmarked) [Compound 1-57, (4′-{4-[1-(2-Chloro-phenyl)-ethoxycarbonylamino]-3-methyl-isoxazol-5-yl}-biphenyl-2-yl)-acetic acid] showed an IC50 (human LPA1) of less than 300 nM and an IC50 (human LPA3) of 1 to 50 µM.

Work on `Cc1noc(-c2ccc(-c3ccc(CC(=O)O)cc3)cc2)c1NC(=O)OC(C)c1ccccc1Cl` (centres unmarked) [Compound 1-58, (4′-{4-[1-(2-Chloro-phenyl)-ethoxycarbonylamino]-3-methyl-isoxazol-5-yl}-biphenyl-4-yl)-acetic acid] yielded an IC50 (human LPA1) of less than 300 nM and an IC50 (human LPA3) of 1 to 50 µM.

`Cc1noc(-c2ccc(-c3cccc(CC(=O)O)c3)cc2)c1NC(=O)OC(C)c1ccccc1Cl` (centres unmarked) [Compound 1-59, (4′-{4-[1-(2-Chloro-phenyl)-ethoxycarbonylamino]-3-methyl-isoxazol-5-yl}-biphenyl-3-yl)-acetic acid] gave an IC50 (human LPA1) of less than 300 nM and an IC50 (human LPA3) of 1 to 50 µM.

`Cc1noc(-c2cccc(-c3cccc(CC(=O)O)c3)c2)c1NC(=O)OC(C)c1ccccc1Cl` (centres unmarked) [Compound 1-60, (3′-{4-[1-(2-Chloro-phenyl)-ethoxycarbonylamino]-3-methyl-isoxazol-5-yl}-biphenyl-3-yl)-acetic acid] showed an IC50 (human LPA1) of 1000 to 50000 nM and an IC50 (human LPA3) of 1 to 50 µM.

Compound `Cc1noc(-c2ccc(-c3ccc(CC(=O)O)cn3)cc2)c1NC(=O)OC(C)c1ccccc1Cl` (centres unmarked) [Compound 1-61, [6-(4-{4-[1-(2-Chloro-phenyl)-ethoxycarbonylamino]-3-methyl-isoxazol-5-yl}-phenyl)-pyridin-3-yl]-acetic acid] has an IC50 (human LPA1) of less than 300 nM and an IC50 (human LPA3) of 1 to 50 µM.

Compound `Cc1noc(-c2ccc(-c3ccc(CCC(=O)O)cc3)cc2)c1NC(=O)OC(C)c1ccccc1Cl` (centres unmarked) [Compound 1-62, 3-(4′-{4-[1-(2-Chloro-phenyl)-ethoxycarbonylamino]-3-methyl-isoxazol-5-yl}-biphenyl-4-yl)-propionic acid] has an IC50 (human LPA1) of less than 300 nM and an IC50 (human LPA3) of 1 to 50 µM.

`Cc1noc(-c2ccc(-c3cncc(CC(=O)O)c3)cc2)c1NC(=O)OC(C)c1ccccc1Cl` (centres unmarked) [Compound 1-63, [5-(4-{4-[1-(2-Chloro-phenyl)-ethoxycarbonylamino]-3-methyl-isoxazol-5-yl}-phenyl)-pyridin-3-yl]-acetic acid] was tested, and the IC50 (human LPA1) was less than 300 nM and the IC50 (human LPA3) was 1 to 50 µM.

`Cc1noc(-c2ccc(-c3cc(CC(=O)O)ccc3F)cc2)c1NC(=O)OC(C)c1ccccc1Cl` (centres unmarked) [Compound 1-64, (4′-{4-[1-(2-Chloro-phenyl)-ethoxycarbonylamino]-3-methyl-isoxazol-5-yl}-6-fluoro-biphenyl-3-yl)-acetic acid] gave an IC50 (human LPA1) of less than 300 nM and an IC50 (human LPA3) of 1 to 50 µM.

With `Cc1noc(-c2ccc(-c3ccc(F)c(CC(=O)O)c3)cc2)c1NC(=O)OC(C)c1ccccc1Cl` (centres unmarked) [Compound 1-65, (4′-{4-[1-(2-Chloro-phenyl)-ethoxycarbonylamino]-3-methyl-isoxazol-5-yl}-4-fluoro-biphenyl-3-yl)-acetic acid] the IC50 (human LPA1) was less than 300 nM and the IC50 (human LPA3) was 1 to 50 µM.

With `Cc1noc(-c2ccc(C3=CCC(C(=O)O)CC3)cc2)c1NC(=O)OC(C)c1ccccc1Cl` (centres unmarked) [Compound 1-66, 4-(4-{4-[1-(2-Chloro-phenyl)-ethoxycarbonylamino]-3-methyl-isoxazol-5-yl}-phenyl)-cyclohex-3-enecarboxylic acid] the IC50 (human LPA1) was less than 300 nM and the IC50 (human LPA3) was 1 to 50 µM.

`Cc1noc(-c2ccc(C3CCC(C(=O)O)CC3)cc2)c1NC(=O)OC(C)c1ccccc1Cl` (centres unmarked) [Compound 1-67, 4-(4-{4-[1-(2-Chloro-phenyl)-ethoxycarbonylamino]-3-methyl-isoxazol-5-yl}-phenyl)-cyclohexanecarboxylic acid] gave an IC50 (human LPA1) of less than 300 nM and an IC50 (human LPA3) of 1 to 50 µM.

`COC(=O)Cc1ccc(-c2ccc(-c3onc(C)c3NC(=O)OC(C)c3ccccc3Cl)cc2)cc1` (centres unmarked) [Compound 1-69, (4′-{4-[1-(2-Chloro-phenyl)-ethoxycarbonylamino]-3-methyl-isoxazol-5-yl}-biphenyl-4-yl)-acetic acid methyl ester] gave an IC50 (human LPA1) of less than 300 nM and an IC50 (human LPA3) of 1 to 50 µM.

Work on `Cc1noc(-c2ccc(-c3ccc(C(C)C(=O)O)cc3)cc2)c1NC(=O)OC(C)c1ccccc1Cl` (centres unmarked) [Compound 1-71, 2-(4′-{4-[1-(2-Chloro-phenyl)-ethoxycarbonylamino]-3-methyl-isoxazol-5-yl}-biphenyl-4-yl)-propionic acid] yielded an IC50 (human LPA1) of less than 300 nM and an IC50 (human LPA3) of 1 to 50 µM.

`Cc1noc(-c2ccc(-c3ccc(C(C)C(=O)O)cc3)cc2)c1NC(=O)OC(C)c1ccccc1F` (centres unmarked) [Compound 1-74, 2-(4′-{4-[1-(2-Fluoro-phenyl)-ethoxycarbonylamino]-3-methyl-isoxazol-5-yl}-biphenyl-4-yl)-propionic acid] was tested, and the IC50 (human LPA1) was less than 300 nM and the IC50 (human LPA3) was 1 to 50 µM.

`Cc1noc(-c2ccc(-c3cccc(C(=O)O)c3)cc2)c1NC(=O)OC(C)c1ccccc1Cl` (centres unmarked) [Compound 1-76, 4′-{4-[1-(2-Chloro-phenyl)-ethoxycarbonylamino]-3-methyl-isoxazol-5-yl}-biphenyl-3-carboxylic acid] was tested, and the IC50 (human LPA1) was less than 300 nM and the IC50 (human LPA3) was 1 to 50 µM.

Compound `Cc1noc(-c2ccc(-c3ccc(CC(=O)O)cc3)cc2)c1NC(=O)OC(C)c1ccc(Cl)cc1F` (centres unmarked) [Compound 1-77, (4′-{4-[1-(4-Chloro-2-fluoro-phenyl)-ethoxycarbonylamino]-3-methyl-isoxazol-5-yl}-biphenyl-4-yl)-acetic acid] has an IC50 (human LPA1) of less than 300 nM and an IC50 (human LPA3) of 1 to 50 µM.

`Cc1noc(-c2ccc(-c3ccc(CC(=O)O)cc3)cc2)c1NC(=O)O[C@H](C)c1ccccc1F` [Compound 1-78, (4′-{4-[(R)-1-(2-Fluoro-phenyl)-ethoxycarbonylamino]-3-methyl-isoxazol-5-yl}-biphenyl-4-yl)-acetic acid] showed an IC50 (human LPA1) of less than 300 nM and an IC50 (human LPA3) of 1 to 50 µM.

`Cc1noc(-c2ccc(COc3ccccc3CC(=O)O)cc2)c1NC(=O)OC(C)c1ccccc1Cl` (centres unmarked) [Compound 1-79, [2-(4-{4-[1-(2-Chloro-phenyl)-ethoxycarbonylamino]-3-methyl-isoxazol-5-yl}-benzyloxy)-phenyl]-acetic acid] was tested, and the IC50 (human LPA1) was less than 300 nM and the IC50 (human LPA3) was 1 to 50 µM.

With `Cc1noc(-c2ccc(Cc3cccc(CC(=O)O)c3)cc2)c1NC(=O)O[C@H](C)c1ccccc1F` [Compound 1-80, [3-(4-{4-[(R)-1-(2-Fluoro-phenyl)-ethoxycarbonylamino]-3-methyl-isoxazol-5-yl}-benzyl)-phenyl]acetic acid] the IC50 (human LPA1) was less than 300 nM and the IC50 (human LPA3) was 1 to 50 µM.

Work on `Cc1noc(-c2ccc(Cc3ccc(CC(=O)O)cc3)cc2)c1NC(=O)O[C@H](C)c1ccccc1F` [Compound 1-81, [4-(4-{4-[(R)-1-(2-Fluoro-phenyl)-ethoxycarbonylamino]-3-methyl-isoxazol-5-yl}-benzyl)-phenyl]-acetic acid] yielded an IC50 (human LPA1) of less than 300 nM and an IC50 (human LPA3) of 1 to 50 µM.

Work on `Cc1noc(-c2ccc(Oc3ccc(CC(=O)O)cc3)cc2)c1NC(=O)O[C@H](C)c1ccccc1F` [Compound 1-84, [4-(4-{4-[(R)-1-(2-Fluoro-phenyl)-ethoxycarbonylamino]-3-methyl-isoxazol-5-yl}-phenoxy)-phenyl]-acetic acid] yielded an IC50 (human LPA1) of less than 300 nM and an IC50 (human LPA3) of 1 to 50 µM.

`Cc1cc(-c2onc(C)c2NC(=O)O[C@H](C)c2ccccc2F)ccc1-c1ccc(CC(=O)O)cc1` [Compound 1-85, (4′-{4-[(R)-1-(2-Fluoro-phenyl)-ethoxycarbonylamino]-3-methyl-isoxazol-5-yl}-2′-methyl-biphenyl-4-yl)-acetic acid] was tested, and the IC50 (human LPA1) was less than 300 nM and the IC50 (human LPA3) was 1 to 50 µM.

In the case of `Cc1noc(-c2ccc(-c3ccc(C(C)(C)C(=O)O)cc3)cc2)c1NC(=O)OC(C)c1ccccc1F` (centres unmarked) [Compound 1-86, 2-(4′-{4-[1-(2-Fluoro-phenyl)-ethoxycarbonylamino]-3-methyl-isoxazol-5-yl}-biphenyl-4-yl)-2-methyl-propionic acid], the IC50 (human LPA1) is reported as less than 300 nM and the IC50 (human LPA3) is reported as 1 to 50 µM.

Work on `Cc1noc(-c2ccc(-c3ccc(C(C)(C)C(=O)O)cn3)cc2)c1NC(=O)OC(C)c1ccccc1F` (centres unmarked) [Compound 1-87, 2-[6-(4-{4-[1-(2-Fluoro-phenyl)-ethoxycarbonylamino]-3-methyl-isoxazol-5-yl}-phenyl)-pyridin-3-yl]-2-methyl-propionic acid] yielded an IC50 (human LPA1) of less than 300 nM and an IC50 (human LPA3) of 1 to 50 µM.
